Patent US9695175B2, “Highly selective c-Met inhibitors as anticancer agents” (Crown Bioscience Inc. (Taiwan), priority 2012, dated 2017)

Assays:
[1] = target: c-Met kinase (1038-1346AA) (Homo sapiens (Human), UniProt P08581); test: c-Met in vitro kinase assay (Lance Ultra ULight-TK); assay type: biochemical; conditions: c-Met kinase 12.5 nM, ATP 2.5 uM, 30° C.; read-out: c-Met Enzyme IC50
Protocol: c-Met In Vitro Kinase Assay [Method] Use Lance@Ultra Ulight™-TK test kits from PerKinElmer to evaluate the inhibition of c-Met kinase by the compounds [Instrument] ENVISION plate reader of PerKinElmer […] Then ATP (final concentration 2.5 uM) and kinase substrate (final concentration 50 nM) are added. […] After 1 hr, the plate is read at 615 nm and 665 nm. The ratio of […] at 665 nm and 615 nm is calculated and used for the data analysis as follows. This assay has a Minimum Significant Ratio (MSA) of 2-3. [Samples] All exampled compounds and Crizotinib as the positive control [Data Analysis] Background—the ratio of 665 nm/615 nm (no enzyme):0.003285 • Max—the ratio of 665 nm/615 nm (no test compound):0.075356 [formula] [Software] Use CBIS data analysis software to calculate IC50 values

[2] = target: c-Met protein in S114 cells (Homo sapiens (Human), UniProt P08581); test: S114 cell-based ELISA, phosphorylation of c-Met protein; conditions: 30 min compound incubation, phospho-c-Met ELISA
Protocol: Cell-Based ELISA [Method] Use ELISA to measure the phosphorylation of c-Met protein in […] cells [Instrument] ENVISION plate reader of PerKinElmer […] [Procedure] […] cells are cultured in DMEM medium (containing 10% FBS). When cells reach 80% confluency, they are collected by trypsinization and centrifugation at 800 rpm for 5 min. The cells are re-suspended in DMEM and adjusted to a density of 500,000 cells/mL. A 96-well plate is pretreated with a solution of Firbronectin in PBS (5 μg/mL) at 100 μL per well for 2 hr. The cell suspension is split into the 96-well culture plate at 100 uL per well and incubated (37° C., 5% CO2) overnight. The capture antibody is diluted with 1/2 Tris-ammonium bicarbonate buffer (1:1000) and transferred into a 96-well absorption plate (70 μL per well) at 4° C. overnight. The solution is discarded and the plate is washed with blocking buffer, followed by adding blocking buffer (150 μL per well), and kept at room temperature for 1 hr. The medium in the 96-well culture plate is discarded and the plate is washed with DMEM (without FBS). Then 80 μL of DMEM (without FBS) and 20 μL of test compound solution at various concentrations in DMEM (without FBS) are added. The culture plate is kept in a culture incubator for 30 min (37° C., 5% CO2). The cell culture medium is discarded and the culture plate is washed with PBS, followed by adding lysis buffer (50 μL per well) and incubated at 4° C. for 20 min. The solution in the absorption plate is discarded and the plate is washed with binding buffer. To each well of the absorption plate is added binding buffer (50 μL) and lysate (40 μL) from the above culture plate; then the plate is incubated at room temperature for 2 hours. The culture medium is discarded and the plate is washed twice with binding buffer, followed by adding a solution of 1st antibody (diluted with binding buffer 1:1000, 100 μL per well) and incubated at 37° C. for 1 hr. The solution is discarded and the plate is washed twice with binding buffer. Then a solution of 2nd antibody is added (100 μL per well) and incubated at 37° C. for another hour. The medium is discarded and the plate is washed twice with binding buffer and once with PBS. To each well, 100 μL of A.B.T.S solution is added and incubated at 37° C. for 30 min. Then OD405 is analyzed on an ENVISION plate reader. This assay has a Minimum Significant Ratio (MSA) of 2-3. [Samples] All exemplified compounds and Crizotinib as the positive control [Data Analysis] Background (no cell lysate): 0.084 • Max (no test compound): 0.517 [formula] [Software] Use CBIS data analysis software to calculate IC50 values

Chain of c-Met protein in S114 cells (P08581 25-1390): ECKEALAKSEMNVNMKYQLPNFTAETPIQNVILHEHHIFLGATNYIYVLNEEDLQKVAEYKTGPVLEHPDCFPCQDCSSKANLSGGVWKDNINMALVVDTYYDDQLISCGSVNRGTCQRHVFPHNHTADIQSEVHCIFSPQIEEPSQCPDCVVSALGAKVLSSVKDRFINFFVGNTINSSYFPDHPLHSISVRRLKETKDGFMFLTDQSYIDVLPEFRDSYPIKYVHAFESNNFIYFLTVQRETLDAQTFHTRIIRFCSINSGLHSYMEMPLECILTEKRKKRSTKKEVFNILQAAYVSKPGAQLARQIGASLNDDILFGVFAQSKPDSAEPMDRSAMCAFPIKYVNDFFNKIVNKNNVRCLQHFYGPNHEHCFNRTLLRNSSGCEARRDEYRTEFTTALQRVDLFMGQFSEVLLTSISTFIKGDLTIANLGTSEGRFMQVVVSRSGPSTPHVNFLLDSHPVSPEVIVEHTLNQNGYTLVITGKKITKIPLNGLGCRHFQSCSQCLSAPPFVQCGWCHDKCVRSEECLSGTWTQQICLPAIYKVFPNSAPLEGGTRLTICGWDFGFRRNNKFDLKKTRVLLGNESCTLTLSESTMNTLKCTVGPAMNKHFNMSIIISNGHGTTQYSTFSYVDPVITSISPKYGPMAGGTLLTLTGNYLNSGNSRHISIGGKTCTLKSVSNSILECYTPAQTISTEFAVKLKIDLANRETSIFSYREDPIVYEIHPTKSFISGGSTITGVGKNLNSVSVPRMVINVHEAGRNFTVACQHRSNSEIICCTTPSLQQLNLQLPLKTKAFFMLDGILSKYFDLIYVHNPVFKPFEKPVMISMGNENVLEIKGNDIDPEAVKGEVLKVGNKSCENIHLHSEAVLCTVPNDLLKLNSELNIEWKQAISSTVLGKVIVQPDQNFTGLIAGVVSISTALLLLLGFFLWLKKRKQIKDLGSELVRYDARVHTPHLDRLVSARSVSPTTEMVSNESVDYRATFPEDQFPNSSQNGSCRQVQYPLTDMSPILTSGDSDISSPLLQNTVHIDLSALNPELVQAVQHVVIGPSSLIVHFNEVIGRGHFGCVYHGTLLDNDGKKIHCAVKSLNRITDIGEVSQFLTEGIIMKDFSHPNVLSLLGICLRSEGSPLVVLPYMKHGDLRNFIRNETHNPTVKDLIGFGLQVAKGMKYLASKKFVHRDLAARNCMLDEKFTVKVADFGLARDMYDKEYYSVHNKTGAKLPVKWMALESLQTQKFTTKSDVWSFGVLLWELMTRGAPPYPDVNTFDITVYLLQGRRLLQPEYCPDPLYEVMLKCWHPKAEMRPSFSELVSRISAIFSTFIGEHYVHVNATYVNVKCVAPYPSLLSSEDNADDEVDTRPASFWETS
Chain of c-Met kinase (1038-1346AA) (P08581 1038-1346): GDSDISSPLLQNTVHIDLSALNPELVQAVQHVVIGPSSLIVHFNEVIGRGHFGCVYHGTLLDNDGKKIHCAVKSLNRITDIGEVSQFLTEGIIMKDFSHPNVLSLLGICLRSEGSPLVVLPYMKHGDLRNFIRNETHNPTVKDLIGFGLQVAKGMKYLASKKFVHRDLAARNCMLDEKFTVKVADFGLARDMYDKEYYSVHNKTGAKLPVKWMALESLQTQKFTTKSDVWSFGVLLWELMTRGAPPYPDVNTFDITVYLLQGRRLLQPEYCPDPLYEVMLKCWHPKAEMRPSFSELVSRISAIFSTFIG

IC50 [1]	IC50 [2]	Compound
0.0488 µM	0.0039 µM	CNC(=O)c1ccc(-c2ccc3nnc(C(F)(F)c4ccc5nn(C)cc5c4F)n3n2)cc1F [Example 1, 4-(3-(Difluoro(4-fluoro-2-methyl-2H-indazol-5-yl)methyl)-[1,2,4]triazolo[4,3-b]pyridazin-6-yl)-2-fluoro-N-methylbenzamide]
0.148 µM	0.103 µM	CN(C)C(=O)c1ccc(-c2ccc3nnc(C(F)(F)c4ccc5nn(C)cc5c4F)n3n2)cc1F [Example 2]
0.0693 µM	0.0715 µM	CCNC(=O)c1ccc(-c2ccc3nnc(C(F)(F)c4ccc5nn(C)cc5c4F)n3n2)cc1F [Example 3]
0.0839 µM	0.0026 µM	CC(C)NC(=O)c1ccc(-c2ccc3nnc(C(F)(F)c4ccc5nn(C)cc5c4F)n3n2)cc1F [Example 4]
0.0454 µM	0.0232 µM	Cn1cc2c(F)c(C(F)(F)c3nnc4ccc(-c5ccc(C(=O)NC6CC6)c(F)c5)nn34)ccc2n1 [Example 5]
0.0365 µM	0.0095 µM	CNC(=O)c1c(F)cc(-c2ccc3nnc(C(F)(F)c4ccc5nn(C)cc5c4F)n3n2)cc1F [Example 6]
0.0764 µM	0.0496 µM	Cn1cc2c(F)c(C(F)(F)c3nnc4ccc(-c5ccc(NC(=O)C6CC6)c(F)c5)nn34)ccc2n1 [Example 7]
–	0.122 µM	CNC(=O)c1ccc(-c2ccc3nnc(C(F)(F)c4ccc5nn(C)cc5c4F)n3n2)cn1 [Example 8]
–	0.085 µM	Cc1cncc(-c2ccc3nnc(C(F)(F)c4ccc5nn(C)cc5c4F)n3n2)c1 [Example 9]
–	0.142 µM	Cn1cc2c(F)c(C(F)(F)c3nnc4ccc(-c5cncc(F)c5)nn34)ccc2n1 [Example 10]
–	0.042 µM	Cn1cc2c(F)c(C(F)(F)c3nnc4ccc(-c5cncc(Cl)c5)nn34)ccc2n1 [Example 11]
0.182 µM	0.19 µM	Cn1cc2c(F)c(C(F)(F)c3nnc4ccc(-c5ccc(C#N)nc5)nn34)ccc2n1 [Example 13]
0.102 µM	0.0225 µM	CC(C)n1cc(-c2ccc3nnc(C(F)(F)c4ccc5nn(C)cc5c4F)n3n2)cn1 [Example 14]
0.38 µM	0.383 µM	COCCn1cc(-c2ccc3nnc(C(F)(F)c4ccc5nn(C)cc5c4F)n3n2)cn1 [Example 15]
0.247 µM	0.179 µM	Cn1cc2c(F)c(C(F)(F)c3nnc4ccc(-c5cnn(CC6COCO6)c5)nn34)ccc2n1 (stereo not shown) [Example 16]
0.0776 µM	0.0556 µM	Cn1cc2c(F)c(C(F)(F)c3nnc4ccc(-c5ccc(S(N)(=O)=O)c(F)c5)nn34)ccc2n1 [Example 17]
0.0908 µM	0.206 µM	CNC(=O)c1ccc(-c2ccc3nnc(C(F)(F)c4cc5cn(C)nc5cc4F)n3n2)c(F)c1 [Example 18]
0.0256 µM	0.0057 µM	CNC(=O)c1ccc(-c2ccc3nnc(C(F)(F)c4cc5cn(C)nc5cc4F)n3n2)cc1F [Example 19]
0.137 µM	0.158 µM	CC(C)NC(=O)c1ccc(-c2ccc3nnc(C(F)(F)c4cc5cn(C)nc5cc4F)n3n2)c(F)c1 [Example 20]
0.18 µM	0.262 µM	CN(C)C(=O)c1ccc(-c2ccc3nnc(C(F)(F)c4cc5cn(C)nc5cc4F)n3n2)cc1F [Example 21]
0.0207 µM	0.0155 µM	CCNC(=O)c1ccc(-c2ccc3nnc(C(F)(F)c4cc5cn(C)nc5cc4F)n3n2)cc1F [Example 22]
0.0416 µM	0.0011 µM	CC(C)NC(=O)c1ccc(-c2ccc3nnc(C(F)(F)c4cc5cn(C)nc5cc4F)n3n2)cc1F [Example 23]
0.0434 µM	0.0149 µM	Cn1cc2cc(C(F)(F)c3nnc4ccc(-c5ccc(C(=O)NC6CC6)c(F)c5)nn34)c(F)cc2n1 [Example 24]
0.125 µM	0.0527 µM	Cn1cc2cc(C(F)(F)c3nnc4ccc(-c5ccc(C(=O)N6CCCC6)c(F)c5)nn34)c(F)cc2n1 [Example 25]

IC50 [1]	IC50 [2]	Compound
0.357 µM	0.299 µM	Cn1cc2cc(C(F)(F)c3nnc4ccc(-c5ccc(C(=O)N6CCOCC6)c(F)c5)nn34)c(F)cc2n1 [Example 26]
0.148 µM	0.324 µM	CN1CCN(C(=O)c2ccc(-c3ccc4nnc(C(F)(F)c5cc6cn(C)nc6cc5F)n4n3)cc2F)CC1 [Example 27]
0.0277 µM	0.0142 µM	CNC(=O)c1c(F)cc(-c2ccc3nnc(C(F)(F)c4cc5cn(C)nc5cc4F)n3n2)cc1F [Example 28]
0.0295 µM	0.0079 µM	Cn1cc2cc(C(F)(F)c3nnc4ccc(-c5ccc(NC(=O)C6CC6)c(F)c5)nn34)c(F)cc2n1 [Example 29]
0.0518 µM	0.045 µM	CNC(=O)c1cc(-c2ccc3nnc(C(F)(F)c4cc5cn(C)nc5cc4F)n3n2)ccn1 [Example 30]
0.0814 µM	0.0606 µM	CNC(=O)c1ccc(-c2ccc3nnc(C(F)(F)c4cc5cn(C)nc5cc4F)n3n2)cn1 [Example 31]
0.109 µM	0.0377 µM	Cc1cncc(-c2ccc3nnc(C(F)(F)c4cc5cn(C)nc5cc4F)n3n2)c1 [Example 32]
0.242 µM	0.21 µM	Cn1cc2cc(C(F)(F)c3nnc4ccc(-c5cncc(F)c5)nn34)c(F)cc2n1 [Example 33]
0.0532 µM	0.0576 µM	Cn1cc2cc(C(F)(F)c3nnc4ccc(-c5cncc(Cl)c5)nn34)c(F)cc2n1 [Example 34]
0.065 µM	0.0881 µM	Cn1cc2cc(C(F)(F)c3nnc4ccc(-c5ccc(C#N)nc5)nn34)c(F)cc2n1 [Example 35]
0.113 µM	0.034 µM	Cc1cc(-c2ccc3nnc(C(F)(F)c4cc5cn(C)nc5cc4F)n3n2)ccn1 [Example 36]
0.0507 µM	0.0137 µM	Cn1cc(-c2ccc3nnc(C(F)(F)c4cc5cn(C)nc5cc4F)n3n2)cn1 [Example 37]
0.0829 µM	0.0441 µM	CC(C)n1cc(-c2ccc3nnc(C(F)(F)c4cc5cn(C)nc5cc4F)n3n2)cn1 [Example 38]
0.0797 µM	0.204 µM	Cn1cc2cc(C(F)(F)c3nnc4ccc(-c5cnn(C6CCOC6)c5)nn34)c(F)cc2n1 (stereo not shown) [Example 39]
0.203 µM	0.134 µM	COCCn1cc(-c2ccc3nnc(C(F)(F)c4cc5cn(C)nc5cc4F)n3n2)cn1 [Example 40]
0.127 µM	0.348 µM	Cn1cc2cc(C(F)(F)c3nnc4ccc(-c5cnn(CC6COCO6)c5)nn34)c(F)cc2n1 (stereo not shown) [Example 41]
0.136 µM	0.406 µM	CNS(=O)(=O)c1ccc(-c2ccc3nnc(C(F)(F)c4cc5cn(C)nc5cc4F)n3n2)cc1F [Example 42]
0.0233 µM	0.0352 µM	Cn1cc2cc(C(F)(F)c3nnc4ccc(-c5cc(F)c6c(c5)CNC6=O)nn34)c(F)cc2n1 [Example 43]
0.0316 µM	0.0078 µM	Cn1cc2cc(C(F)(F)c3nnc4ccc(-c5cnn(C6CC6)c5)nn34)c(F)cc2n1 [Example 44]
0.274 µM	0.27 µM	Cn1cc2cc(C(F)(F)C3(Cl)NN=C4C=CC(c5cnn(C6CC6)c5)=CN43)c(F)cc2n1 (stereo not shown) [Example 45]
0.159 µM	0.139 µM	Cn1cc2cc(C(F)(F)c3nnc4ccc(-c5cnn(C6CC6)c5)cn34)c(F)cc2n1 [Example 46]
4.13 µM	–	O=C(NCCN1CCOCC1)n1cc2cc(C(F)(F)c3nnc4ccc(-c5cnn(C6CC6)c5)nn34)c(F)cc2n1 [Example 51]
0.568 µM	–	Nc1nc2ccc(C(F)(F)c3nnc4ccc(-c5cnn(C6CC6)c5)nn34)cc2[nH]1 [Example 52]
